Assay results from PMC9621292, “Design and synthesis of some new benzoylthioureido benzenesulfonamide derivatives and their analogues as carbonic anhydrase inhibitors” (Journal of Enzyme Inhibition and Medicinal Chemistry, 2022).

How the values were obtained:
hCA IX = hCA IX (Homo sapiens, UniProt Q16790); experiment: Stopped flow CO2 hydrase assay, hCA IX; details: for Selectivity index I/IX: inhibition of hCA IX over hCA I; for Selectivity index I/IX / Selectivity index II/IX: calculated from Ki; for Selectivity index II/IX: inhibition of hCA IX over hCA II
Description: (§1) The uncatalyzed rates were determined in the same manner and subtracted from the total observed rates. Stock solutions of inhibitor (0.1 mM) were prepared in distilled-deionized water and dilutions up to 0.01 nM were done thereafter with the assay buffer. Inhibitor and enzyme solutions were preincubated together for 15 min at room temperature prior to assay, in order to allow for the formation of the E-I complex. The inhibition constants were obtained by non-linear least-squares methods using PRISM 3 and the Cheng–Prusoff equation, as reported earlier,[29–32] and represent the mean from at least three different determinations.

hCA I = hCA I (Homo sapiens, UniProt P00915); experiment: Stopped flow CO2 hydrase assay, hCA I
Chain of hCA I (P00915 whole entry): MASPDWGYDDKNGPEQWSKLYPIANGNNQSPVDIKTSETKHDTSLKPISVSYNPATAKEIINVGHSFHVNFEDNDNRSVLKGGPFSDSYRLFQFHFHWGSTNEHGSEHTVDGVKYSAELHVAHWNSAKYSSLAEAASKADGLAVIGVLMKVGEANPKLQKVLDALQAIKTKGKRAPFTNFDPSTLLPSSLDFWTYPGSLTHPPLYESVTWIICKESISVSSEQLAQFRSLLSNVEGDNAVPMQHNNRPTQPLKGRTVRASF
Description: as §1

hCA II = hCA II (Homo sapiens, UniProt P00918); experiment: Stopped flow CO2 hydrase assay, hCA II
Description: as §1

hCA XII = hCA XII (Homo sapiens, UniProt O43570); experiment: Stopped flow CO2 hydrase assay, hCA XII; details: for Selectivity index I/XII: inhibition of hCA XII over hCA I; for Selectivity index I/XII / Selectivity index II/XII: calculated from Ki; for Selectivity index II/XII: inhibition of hCA XII over hCA II
Chain of hCA XII (O43570 25-354): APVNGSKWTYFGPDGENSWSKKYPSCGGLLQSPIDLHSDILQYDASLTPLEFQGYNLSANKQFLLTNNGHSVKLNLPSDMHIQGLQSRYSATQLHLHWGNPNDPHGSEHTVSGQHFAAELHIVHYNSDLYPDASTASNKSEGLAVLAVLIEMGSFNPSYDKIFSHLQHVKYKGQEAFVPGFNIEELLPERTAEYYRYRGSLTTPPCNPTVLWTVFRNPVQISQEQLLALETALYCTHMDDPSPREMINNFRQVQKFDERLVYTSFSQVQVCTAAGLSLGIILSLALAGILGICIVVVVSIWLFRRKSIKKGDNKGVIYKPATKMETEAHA
Description: as §1

CA IX = details: cited from earlier work

| Compound | Ki (hCA IX) [µM] | melting point [°C] | Ki (hCA I) [µM] | Ki (hCA II) [µM] | Ki (hCA XII) [µM] | Selectivity index I/IX (hCA IX) | Selectivity index II/IX (hCA IX) | Selectivity index I/XII (hCA XII) | Selectivity index II/XII (hCA XII) | Ki (CA IX; compound A, printed in Figure 2, read-out: Ki hCA IX) [µM] | IC50 (CA IX; reported for compound A) [µM] |
| --- | --- | --- | --- | --- | --- | --- | --- | --- | --- | --- | --- |
| CC(=O)Nc1cccc(C(=O)NC(=S)Nc2ccc(S(N)(=O)=O)cc2)c1 [Compound 7a, 3-Acetamido-N-((4-sulfamoylphenyl)carbamothioyl)benzamide] | 0.238 | 256 to 258 | 0.0582 | 0.0025 | > 100 |  |  |  |  |  |  |
| CC(C)C(=O)Nc1cccc(C(=O)NC(=S)Nc2ccc(S(N)(=O)=O)cc2)c1 [Compound 7b, 3-Isobutyramido-N-((4-sulfamoylphenyl)carbamothioyl)benzamide] | 0.149 | 240 to 242 | 0.0563 | 0.0021 | > 100 |  |  |  |  |  |  |
| Cc1ccc(C(=O)Nc2cccc(C(=O)NC(=S)Nc3ccc(S(N)(=O)=O)cc3)c2)cc1 [Compound 7c, 3-(4-Methylbenzamido)-N-((4-sulfamoylphenyl)carbamothioyl)benzamide] | 0.0312 | 210 to 212 | 0.033 | 0.0566 | > 100 | 1.0 | 2.0 |  |  |  |  |
| CC(=O)Nc1ccc(C(=O)NC(=S)Nc2ccc(S(N)(=O)=O)cc2)cc1 [Compound 7d, 4-Acetamido-N-((4-sulfamoylphenyl)carbamothioyl)benzamide] | 0.168 | 218 to 220 | 5.45 | 0.701 | 0.097 |  |  |  |  |  |  |
| CC(C)C(=O)Nc1ccc(C(=O)NC(=S)Nc2ccc(S(N)(=O)=O)cc2)cc1 [Compound 7e, 4-Isobutyramido-N-((4-sulfamoylphenyl)carbamothioyl)benzamide] | 0.203 | 248 to 250 | 0.333 | 0.0396 | 0.094 |  |  |  |  |  |  |
| Cc1ccc(C(=O)Nc2ccc(C(=O)NC(=S)Nc3ccc(S(N)(=O)=O)cc3)cc2)cc1 [Compound 7f, 4-Methyl-N-(4(((4sulfamoylphenyl)carbamothioyl)carbamoyl)phenyl) benzamide] | 0.03 | 228 to 230 | 0.043 | 0.039 | 0.106 | 1.4 | 1.3 |  |  |  |  |
| CC(=O)Nc1cccc(C(=O)NC(=S)Nc2ccc(C(=O)O)cc2)c1 [Compound 8a, 4-(3-(3-Acetamidobenzoyl)thioureido)benzoic acid] | 0.209 | 247 to 249 | 8.18 | 5.4 | 0.017 |  |  | 481 | 318 |  |  |
| CC(C)C(=O)Nc1cccc(C(=O)NC(=S)Nc2ccc(C(=O)O)cc2)c1 [Compound 8b, 4-(3-(3-Isobutyramidobenzoyl)thioureido)benzoic acid] | 0.208 | 240 to 242 | > 100 | > 100 | 0.142 |  |  |  |  |  |  |
| Cc1ccc(C(=O)Nc2cccc(C(=O)NC(=S)Nc3ccc(C(=O)O)cc3)c2)cc1 [Compound 8c, 4-(3-(3-(4-Methylbenzamido)benzoyl)thioureido)benzoic acid] | 0.264 | 254 to 256 | 9.17 | 0.295 | 0.145 |  |  |  |  |  |  |
| CC(=O)Nc1ccc(C(=O)NC(=S)Nc2ccc(C(=O)O)cc2)cc1 [Compound 8d, 4-(3-(4-Acetamidobenzoyl)thioureido)benzoic acid] | 0.971 | 245 to 247 | > 100 | 0.855 | > 100 |  |  |  |  |  |  |
| CC(C)C(=O)Nc1ccc(C(=O)NC(=S)Nc2ccc(C(=O)O)cc2)cc1 [Compound 8e, 4-(3-(4-Isobutyramidobenzoyl)thioureido)benzoic acid] | 0.898 | 240 to 242 | > 100 | 0.43 | 0.102 | 293 |  |  |  |  |  |
| Cc1ccc(C(=O)Nc2ccc(C(=O)NC(=S)Nc3ccc(C(=O)O)cc3)cc2)cc1 [Compound 8f, 4-(3-(4–(4-Methylbenzamido)benzoyl)thioureido)benzoic acid] | 0.176 | 254 to 256 | 0.422 | > 100 | 0.011 |  |  | 38 | >9091 |  |  |
| CCOC(=O)c1ccc(NC(=S)NC(=O)c2cccc(NC(C)=O)c2)cc1 [Compound 9a, Ethyl 4–(3-(3-acetamidobenzoyl)thioureido)benzoate] | 2.13 | 242 to 244 | 9.04 | > 100 | > 100 |  |  |  |  |  |  |
| CCOC(=O)c1ccc(NC(=S)NC(=O)c2cccc(NC(=O)C(C)C)c2)cc1 [Compound 9b, Ethyl 4–(3-(3-isobutyramidobenzoyl)thioureido)benzoate] | 0.3 | 245 to 247 | 8.66 | 0.0571 | > 100 |  |  |  |  |  |  |
| CCOC(=O)c1ccc(NC(=S)NC(=O)c2cccc(NC(=O)c3ccc(C)cc3)c2)cc1 [Compound 9c, Ethyl 4–(3-(3–(4-methylbenzamido)benzoyl)thioureido)benzoate] | 0.251 | 236 to 238 | > 100 | 0.546 | > 100 |  |  |  |  |  |  |
| CCOC(=O)c1ccc(NC(=S)NC(=O)c2ccc(NC(C)=O)cc2)cc1 [Compound 9d, Ethyl 4–(3-(4-acetamidobenzoyl)thioureido)benzoate] | 1.63 | 237 to 239 | > 100 | > 100 | > 100 |  |  |  |  |  |  |
| CCOC(=O)c1ccc(NC(=S)NC(=O)c2ccc(NC(=O)C(C)C)cc2)cc1 [Compound 9e, Ethyl 4–(3-(4-isobutyramidobenzoyl)thioureido)benzoate] | 0.029 | 245 to 247 | 8.5 | 0.0732 | 0.202 | 293 | 2.5 |  |  |  |  |
| CCOC(=O)c1ccc(NC(=S)NC(=O)c2ccc(NC(=O)c3ccc(C)cc3)cc2)cc1 [Compound 9f, Ethyl 4–(3-(4–(4-methylbenzamido)benzoyl)thioureido)benzoate] | 1.58 | 237 to 239 | > 100 | > 100 | 0.155 |  |  |  |  |  |  |
| NS(=O)(=O)c1ccc(NC(=S)NC(=O)c2ccc(Cl)cc2Cl)cc1 [Compound A] |  |  |  |  |  |  |  |  |  | 0.00012 | 0.00012 |
